According to PMC7561186, “Rational design of balanced dual-targeting antibiotics with limited resistance” (PLoS Biology, 2020):
Like-named read-outs stand apart in the source and are kept apart here.

Key:
CHO-K1 cells = assay type: cell-based, hamster; conditions: for % Micronucleated cells / Micronucleus Test Result: 4 hours, CHO-K1
Procedure: Genetic toxicity analysis of compounds was performed in an in vitro micronucleus test, according to the protocol described in Diaz and colleagues (2007), at Eurofins Panlabs (St. Charles, MO, US). Micronucleated cells and micronuclei were enumerated by the use of high-content fluorescent cell imaging. The assay was performed on CHO-K1 cells. […] Experiments were performed in 2 biological replicates. All cell lines were tested as being negative for Mycoplasma contamination.

S. aureus = assay: pH-dependent MIC determination; assay type: cell-based; conditions: Staphylococcus aureus
Procedure: (§1) MICs were determined using a standard serial broth microdilution technique according to the CLSI guidelines. Briefly, bacterial strains were inoculated onto MHBII agar plates and were grown overnight at 37 °C. Next, 3 individual colonies from each strain were inoculated into 1 mL MHBII medium and propagated at 37 °C, 250 rpm overnight. In the cases of Enterococcus and Streptococcus sp., cells were plated to BHI agar plates, and BHI broth was used to determine MICs. […] Following dilutions, each well was seeded with 5×10^4 bacterial cells. All measurements were performed in 3 parallel replicates and to avoid possible edge effects in microwell plates, side rows (A and H) were filled with sterile medium. Following inoculations, plates were covered with lids and wrapped in polyethylene plastic bags to minimize evaporation but allow for O2 transfer. Plates were incubated at 37 °C under continuous shaking at 150 rpm for 18 hours. After incubation, OD600 of each well was measured using a BioTek Synergy 2 microplate reader.

Streptococcus pyogenes = assay: MIC, broth microdilution (CLSI); assay type: cell-based
Procedure: as §1

Acinetobacter baumannii = assay: MIC, broth microdilution (CLSI); assay type: cell-based
Procedure: as §1

Neisseria gonorrhoeae = assay: MIC, broth microdilution (CLSI); assay type: cell-based
Procedure: as §1

Streptococcus pneumoniae = assay: MIC, broth microdilution (CLSI); assay type: cell-based
Procedure: as §1

Listeria monocytogenes = assay: MIC, broth microdilution (CLSI); assay type: cell-based; conditions: Listeria monocytogenes ATCC 19111
Procedure: as §1

Shigella flexneri = assay: MIC, broth microdilution (CLSI); assay type: cell-based
Procedure: as §1

Pseudomonas aeruginosa = assay: MIC, broth microdilution (CLSI); assay type: cell-based
Procedure: as §1

Clostridium difficile = assay: MIC, broth microdilution (CLSI); assay type: cell-based
Procedure: as §1

Staphylococcus aureus = assay: MIC, broth microdilution (CLSI); assay type: cell-based
Procedure: as §1

Enterococcus faecium = assay: MIC, broth microdilution (CLSI); assay type: cell-based
Procedure: as §1

Helicobacter pylori = assay: MIC, broth microdilution (CLSI); assay type: cell-based; conditions: Helicobacter pylori ATCC 43504
Procedure: as §1

[1] = system: S. aureus VISA ATCC 700699 GyrB R144I and GyrB I175T; assay: Second-step frequency-of-resistance assay in GyrB single mutants; assay type: cell-based
Procedure: To determine the spontaneous frequency-of-resistance, approximately 10^10 cells from stationary-phase MHBII broth cultures of S. aureus ATCC 700699 and S. aureus ATCC 43300 were plated to antibiotic-containing plates according to a standard protocol to determine frequency-of-resistance. Prior to plating, bacteria were grown overnight in MHBII medium at 37 °C, 250 rpm, collected by centrifugation, and washed once in equal volumes of MHBII broth. From this concentrated cell suspension (250 μL), approximately 10^10 cells were then plated to each MHBII agarose plates. Using agarose instead of agar reduced drug-adsorption and improved the performance of the assay. […] All experiments were performed in at least 3 replicates. Plates were grown at 37 °C for 72 hours. Total CFUs were determined simultaneously in each experiment by plating appropriate dilutions to antibiotic-free MHBII agar plates. Finally, resistance frequencies for each strain were calculated by dividing the number of colonies formed after a 72-hour incubation at 37 °C by the initial viable cell count.

Compound: Cc1[nH]c(C(=O)Nc2nc3ccc(C(=O)O)cc3s2)c(Cl)c1Cl [ULD1]
- % Micronucleated cells (CHO-K1 cells; 1.3 x 10^-4 M): 0.32%
- Micronucleus Test Result (CHO-K1 cells; 1.3 x 10^-4 M): - (A negative test (-) result indicates P > 0.05 by t-test and percentage of micronucleated cells less than 2-fold higher than the background level)
- % Micronucleated cells (CHO-K1 cells; 2.5 x 10^-4 M): 0.56%
- Micronucleus Test Result (CHO-K1 cells; 2.5 x 10^-4 M): - (A negative test (-) result indicates P > 0.05 by t-test and percentage of micronucleated cells less than 2-fold higher than the background level)
- % Micronucleated cells (CHO-K1 cells; 3.1 x 10^-5 M): 0.47%
- Micronucleus Test Result (CHO-K1 cells; 3.1 x 10^-5 M): - (A negative test (-) result indicates P > 0.05 by t-test and percentage of micronucleated cells less than 2-fold higher than the background level)
- % Micronucleated cells (CHO-K1 cells; 5.0 x 10^-4 M): 0.57%
- Micronucleus Test Result (CHO-K1 cells; 5.0 x 10^-4 M): - (A negative test (-) result indicates P > 0.05 by t-test and percentage of micronucleated cells less than 2-fold higher than the background level)
- % Micronucleated cells (CHO-K1 cells; 6.2 x 10^-5 M): 0.36%
- Micronucleus Test Result (CHO-K1 cells; 6.2 x 10^-5 M): - (A negative test (-) result indicates P > 0.05 by t-test and percentage of micronucleated cells less than 2-fold higher than the background level)
- genetic toxicity (CHO-K1 cells; CHO-K1 micronucleus assay, in words): No genetic toxicity
- MIC (S. aureus; S. aureus ATCC 43300 (MRSA), pH 5.5): 0.004 µg/mL
- MIC (S. aureus; S. aureus ATCC 43300 (MRSA), pH 7.3): 0.1 µg/mL
- MIC (S. aureus; S. aureus ATCC 700699 (VISA), pH 5.5): 0.00025 µg/mL
- MIC (S. aureus; S. aureus ATCC 700699 (VISA), pH 7.3): 0.04 µg/mL
- MIC (Streptococcus pyogenes; Streptococcus pyogenes ATCC 14289): 0.25 µg/mL
- MIC (Streptococcus pyogenes; Streptococcus pyogenes ATCC 19615): 0.125 µg/mL
- MIC (Acinetobacter baumannii; ATCC19606, Acinetobacter baumannii ATCC 19606): 2 µg/mL
- MIC (Acinetobacter baumannii; Acinetobacter baumannii ATCC 17978): 4 µg/mL
- MIC (Acinetobacter baumannii; Acinetobacter baumannii ATCC 19606): 2 µg/mL
- MIC (Neisseria gonorrhoeae; CCUG57598, Neisseria gonorrhoeae CCUG 57598): ≤ 0.0312 µg/mL
- MIC (Neisseria gonorrhoeae; Neisseria gonorrhoeae ATCC 700825): < 0.0312 µg/mL
- MIC (Neisseria gonorrhoeae; Neisseria gonorrhoeae CCUG 57598): < 0.0312 µg/mL
- MIC (Streptococcus pneumoniae; Streptococcus pneumoniae ATCC 49619): 0.25 µg/mL
- MIC (Streptococcus pneumoniae; Streptococcus pneumoniae ATCC 51916): 0.5 µg/mL
- MIC (Streptococcus pneumoniae; Streptococcus pneumoniae ATCC 700673): 0.5 µg/mL
- MIC (Listeria monocytogenes; ATCC19111): 0.125 µg/mL
- MIC (Listeria monocytogenes): 0.125 µg/mL
- MIC (Shigella flexneri; Shigella flexneri 668): 16 µg/mL
- MIC (Shigella flexneri; Shigella flexneri HNCMB 20018): 8 µg/mL
- MIC (Pseudomonas aeruginosa; ATCC27853, Pseudomonas aeruginosa ATCC 27853): 8 µg/mL
- MIC (Pseudomonas aeruginosa; Pseudomonas aeruginosa ATCC 27853): 8 µg/mL
- MIC (Pseudomonas aeruginosa; Pseudomonas aeruginosa B3-1811, Ciprofloxacin-R, Cephalosporin-R): > 64 µg/mL
- MIC (Clostridium difficile; Clostridioides difficile, BAA1875): ≤ 0.0312 µg/mL
- MIC (Clostridium difficile; Clostridium difficile BAA-1875): < 0.0312 µg/mL
- MIC (Staphylococcus aureus; Staphylococcus aureus (strain not given), MRSA (SCCmec type IV), Oxacillin-R, VSSA, Cephalosporin-R, Erythromycin-R): 1 µg/mL
- MIC (Staphylococcus aureus; Staphylococcus aureus ATCC 29213): 1 µg/mL
- MIC (Staphylococcus aureus; Staphylococcus aureus ATCC 33594, MSSA, VSSA): 0.5 µg/mL
- MIC (Staphylococcus aureus; Staphylococcus aureus ATCC 43300, MRSA): 0.125 µg/mL
- MIC (Staphylococcus aureus; Staphylococcus aureus ATCC 700699 (Mu50, NRS1), MRSA, VISA): 0.0625 µg/mL
- MIC (Staphylococcus aureus; Staphylococcus aureus CDC AR-BANK 0218, MRSA, VISA): 1 µg/mL
- MIC (Staphylococcus aureus; Staphylococcus aureus ECL 2963646, MRSA, VRSA): 0.125 µg/mL
- MIC (Staphylococcus aureus; Staphylococcus aureus NRS271, MRSA, Linezolid-R): 1 µg/mL
- MIC (Staphylococcus aureus; Staphylococcus aureus USA300, ATCC BAA-1717, MRSA): 0.5 µg/mL
- MIC (Staphylococcus aureus; Staphylococcus aureus USA400, BAA-1707, NRS123, MRSA): 0.5 µg/mL
- MIC (Staphylococcus aureus; Staphylococcus aureus, ATCC 700699 / MRSA / NRS 1 / VISA, S. aureus ATCC 700699 (Mu50, NRS1), MRSA, VISA): 0.0625 µg/mL
- MIC (Staphylococcus aureus; Staphylococcus aureus, S. aureus ECL 2963646, MRSA, VRSA): 0.125 µg/mL
- MIC (Enterococcus faecium; Enterococcus faecium ATCC 19434): 2 µg/mL
- MIC (Enterococcus faecium; Enterococcus faecium ATCC 700221, VRE (VanA+)): 0.0625 µg/mL
- MIC (Enterococcus faecium; Enterococcus faecium BAA-2320, VRE (VanA+)): 0.25 µg/mL
- MIC (Enterococcus faecium; Enterococcus faecium CCUG 56858, VRE (VanB+)): 2 µg/mL
- MIC (Helicobacter pylori): 4 µg/mL
- Resistant colony number ([1]; VISA GyrB I175T, 4xMIC): lawn
- Resistant colony number ([1]; VISA GyrB I175T, 8xMIC): lawn
- Resistant colony number ([1]; VISA GyrB R144I, 4xMIC): lawn
- Frequency-of-Resistance ([1]; VISA GyrB R144I, 12xMIC): 4.57E-08
- Resistant colony number ([1]; VISA GyrB R144I, 12xMIC): 1288
- Frequency-of-Resistance ([1]; VISA GyrB R144I, 16xMIC): 1.61E-08
- Resistant colony number ([1]; VISA GyrB R144I, 16xMIC): 454
